Reference: ChEMBL document CHEMBL4673209, “Discovery of a novel potent GPR40 full agonist” (Bioorg Med Chem Lett, 2018)
Active and inactive are the calls of the source. The rule behind the calls is not given here.

Assays:
[1] = Oral bioavailability in dog; type: ADME, organism-based, Canis lupus familiaris; conditions: in vivo
Rattus norvegicus [2] = assay: Anti-glycemic activity in fasted Sprague-Dawley ZDF rat assessed as reduction in post-prandial hyperglycemia by measuring AUC(0 to 2 hrs) for blood glucose at 10 mg/kg administered for 1 day and measured on day 1 by OGTT; type: functional
[3] = molecular target: T1, Free fatty acid receptor 1 (Homo sapiens, UniProt O14842); assay: Agonist activity at human GPR40 receptor expressed in CHOK1 cells assessed as induction of IP1 accumulation; type: functional, cell-based, CHO-K1
T1 sequence (O14842 whole entry): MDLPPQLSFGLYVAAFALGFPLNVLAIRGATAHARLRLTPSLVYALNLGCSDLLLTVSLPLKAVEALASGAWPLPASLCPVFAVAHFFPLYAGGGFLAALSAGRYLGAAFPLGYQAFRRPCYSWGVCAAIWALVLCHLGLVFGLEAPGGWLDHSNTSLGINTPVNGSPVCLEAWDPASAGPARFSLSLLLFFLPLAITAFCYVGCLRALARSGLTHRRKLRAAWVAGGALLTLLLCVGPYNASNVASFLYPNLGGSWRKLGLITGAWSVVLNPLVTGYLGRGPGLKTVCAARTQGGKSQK

[4] = molecular target: T2, Free fatty acid receptor 1 (Rattus norvegicus, UniProt Q8K3T4); assay: Agonist activity at rat GPR40 transfected in HEK293 cells assessed as increase in intracellular calcium level incubated for 1 hr by Fluo-8 dye based fluorescence analysis; type: functional, cell-based
T2 sequence (Q8K3T4 whole entry): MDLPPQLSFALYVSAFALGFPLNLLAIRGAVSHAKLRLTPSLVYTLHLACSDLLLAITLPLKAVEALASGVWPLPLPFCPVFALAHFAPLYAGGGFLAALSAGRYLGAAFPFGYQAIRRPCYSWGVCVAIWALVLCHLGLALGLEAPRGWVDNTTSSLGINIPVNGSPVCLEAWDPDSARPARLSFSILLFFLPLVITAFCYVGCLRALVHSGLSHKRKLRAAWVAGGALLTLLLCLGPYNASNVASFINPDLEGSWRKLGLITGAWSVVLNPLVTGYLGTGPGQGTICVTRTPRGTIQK

[5] = molecular target: T3, Peroxisome proliferator-activated receptor gamma (Homo sapiens) (UniProt P37231); assay: Agonist activity at PPARgamma (unknown origin); type: cell-based; conditions: HEK293
T3 sequence (whole entry): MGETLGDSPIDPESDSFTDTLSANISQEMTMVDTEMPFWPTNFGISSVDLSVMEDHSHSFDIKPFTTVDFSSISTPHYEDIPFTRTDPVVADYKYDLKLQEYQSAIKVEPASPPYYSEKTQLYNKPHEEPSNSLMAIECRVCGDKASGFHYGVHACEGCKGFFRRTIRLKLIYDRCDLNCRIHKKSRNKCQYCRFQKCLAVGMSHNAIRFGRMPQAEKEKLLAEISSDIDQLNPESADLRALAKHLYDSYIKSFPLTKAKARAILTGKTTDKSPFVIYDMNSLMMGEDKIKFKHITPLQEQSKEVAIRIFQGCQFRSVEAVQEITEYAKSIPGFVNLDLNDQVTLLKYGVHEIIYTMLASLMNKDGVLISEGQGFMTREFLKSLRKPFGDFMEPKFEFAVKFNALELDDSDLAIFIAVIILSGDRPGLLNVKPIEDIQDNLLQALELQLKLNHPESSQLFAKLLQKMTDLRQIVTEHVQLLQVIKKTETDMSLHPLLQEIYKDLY

[6] = Hepatic clearance in rat; type: ADME; conditions: in vivo
[7] = molecular target: T4, Peroxisome proliferator-activated receptor alpha (Homo sapiens) (UniProt Q07869); assay: Agonist activity at PPARalpha (unknown origin)
T4 sequence (whole entry): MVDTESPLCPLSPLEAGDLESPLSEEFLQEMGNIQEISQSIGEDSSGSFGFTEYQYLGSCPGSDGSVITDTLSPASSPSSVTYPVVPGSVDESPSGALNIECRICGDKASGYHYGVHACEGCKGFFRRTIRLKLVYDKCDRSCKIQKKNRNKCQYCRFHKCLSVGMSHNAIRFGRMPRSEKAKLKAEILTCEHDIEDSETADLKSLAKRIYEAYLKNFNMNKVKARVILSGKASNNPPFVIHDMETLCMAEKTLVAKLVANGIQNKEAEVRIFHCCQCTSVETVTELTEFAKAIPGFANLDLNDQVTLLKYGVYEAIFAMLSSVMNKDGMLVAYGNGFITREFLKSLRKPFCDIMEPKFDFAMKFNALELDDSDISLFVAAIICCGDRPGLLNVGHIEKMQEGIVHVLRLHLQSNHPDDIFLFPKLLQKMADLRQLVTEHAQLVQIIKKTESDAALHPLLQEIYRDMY

[8] = molecular target: Free fatty acid receptor 1 (Rattus norvegicus) (UniProt Q8K3T4); assay: Agonist activity at rat GPR40 receptor expressed in CHOK1 cells assessed as induction of IP1 accumulation at 10 uM relative to TAK875; type: functional, cell-based; conditions: CHO-K1, filed as agonist
Chain of Free fatty acid receptor 1 (Rattus norvegicus) (Q8K3T4 whole entry): as the sequence (Q8K3T4 whole entry) above

[9] = Volume of distribution at steady state in cynomolgus monkey; type: ADME, Macaca fascicularis; conditions: in vivo, read-out: Vdss
Rattus norvegicus [10] = assay: Anti-glycemic activity in fasted Sprague-Dawley ZDF rat assessed as increase in insulin secretion by measuring insulin level in plasma administered 30 mins prior to glucose challenge measured after 140 mins by OGTT; type: functional, organism-based; conditions: dose 1-10 mg/kg, time 170.0 min
[11] = molecular target: T1, Free fatty acid receptor 1; assay: Agonist activity at GPR40 in human islets assessed as induction of glucose-stimulated insulin secretion at 0.3 to 10 uM; type: tissue-based; conditions: Pancreatic islet, filed as agonist, dose 0.3-10 µM
[12] = Half life in iv dosed dog; type: ADME, organism-based, Canis lupus familiaris; conditions: in vivo
[13] = Intrinsic clearance in human assessed as half-life at 1 uM; type: ADME
[14] = Volume of distribution at steady state in rat; type: ADME; conditions: in vivo, read-out: Vdss
Cytochrome P450 2D6 = Cytochrome P450 2D6 (Homo sapiens, UniProt P10635); assay: Inhibition of CYP2D6 (unknown origin); type: ADME
Chain of Cytochrome P450 2D6 (P10635 whole entry): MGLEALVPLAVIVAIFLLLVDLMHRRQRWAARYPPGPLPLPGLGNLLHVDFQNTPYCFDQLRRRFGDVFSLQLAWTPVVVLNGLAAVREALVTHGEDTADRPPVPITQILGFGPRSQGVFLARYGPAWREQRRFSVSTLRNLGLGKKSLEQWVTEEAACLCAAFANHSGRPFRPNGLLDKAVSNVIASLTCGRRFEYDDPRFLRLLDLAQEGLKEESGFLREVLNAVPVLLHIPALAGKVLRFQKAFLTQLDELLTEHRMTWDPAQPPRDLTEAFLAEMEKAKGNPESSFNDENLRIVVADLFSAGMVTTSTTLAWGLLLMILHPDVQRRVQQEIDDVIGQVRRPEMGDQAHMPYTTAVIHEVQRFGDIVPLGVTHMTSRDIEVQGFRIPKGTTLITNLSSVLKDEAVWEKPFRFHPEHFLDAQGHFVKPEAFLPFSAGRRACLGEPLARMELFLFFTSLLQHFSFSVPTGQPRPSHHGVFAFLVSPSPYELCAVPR

[15] = Protein binding in dog plasma; type: ADME, cell-free, Canis lupus familiaris; conditions: read-out: PPB (converted)
[16] = molecular target: T2, Free fatty acid receptor 1; assay: Agonist activity at GPR40 receptor in rat INS1(832/13) cells assessed as induction of IP1 accumulation; type: functional, cell-based, INS-1 832/13
Cytochrome P450 2C8 = molecular target: T5, Cytochrome P450 2C8 (Homo sapiens, UniProt P10632); assay: Inhibition of recombinant CYP2C8 (unknown origin); type: ADME
T5 sequence (P10632 whole entry): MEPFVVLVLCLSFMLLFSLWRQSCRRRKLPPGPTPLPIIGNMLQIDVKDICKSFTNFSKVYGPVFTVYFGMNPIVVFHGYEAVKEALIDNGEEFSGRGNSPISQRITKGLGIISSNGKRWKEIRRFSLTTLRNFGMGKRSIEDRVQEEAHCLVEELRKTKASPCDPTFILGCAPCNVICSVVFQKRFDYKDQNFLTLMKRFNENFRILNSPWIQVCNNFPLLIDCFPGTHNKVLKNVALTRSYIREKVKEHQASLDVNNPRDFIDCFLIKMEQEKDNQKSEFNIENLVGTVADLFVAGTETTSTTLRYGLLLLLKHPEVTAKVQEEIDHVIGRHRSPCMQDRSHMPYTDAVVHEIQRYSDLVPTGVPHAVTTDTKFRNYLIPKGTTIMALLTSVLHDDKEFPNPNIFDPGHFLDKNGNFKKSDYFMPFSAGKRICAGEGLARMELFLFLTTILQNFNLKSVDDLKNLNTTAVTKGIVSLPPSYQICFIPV

[17] = Oral bioavailability in rat; type: ADME, organism-based; conditions: in vivo
[18] = Cmax in cynomolgus monkey; type: ADME, Macaca fascicularis; conditions: in vivo
[19] = Apparent permeability across basolateral to apical side in human Caco2 cells; type: ADME, cell-based; conditions: Caco-2
[20] = molecular target: T6, Free fatty acid receptor 4 (Homo sapiens) (UniProt Q5NUL3); assay: Agonist activity at GPR120 (unknown origin)
T6 sequence (whole entry): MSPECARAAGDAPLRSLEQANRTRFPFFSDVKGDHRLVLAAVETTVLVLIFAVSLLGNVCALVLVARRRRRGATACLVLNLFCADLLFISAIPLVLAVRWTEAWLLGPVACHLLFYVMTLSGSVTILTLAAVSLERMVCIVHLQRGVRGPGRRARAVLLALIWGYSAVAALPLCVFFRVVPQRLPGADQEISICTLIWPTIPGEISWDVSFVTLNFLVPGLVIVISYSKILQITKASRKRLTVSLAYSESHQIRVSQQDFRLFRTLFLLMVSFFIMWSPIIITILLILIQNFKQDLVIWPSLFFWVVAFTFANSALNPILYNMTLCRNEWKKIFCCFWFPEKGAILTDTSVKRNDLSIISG

[21] = Apparent permeability from apical to basolateral side in dog MDCK-MDR1 cells; type: ADME, cell-based, Canis lupus familiaris
[22] = Hepatic clearance in dog; type: ADME, Canis lupus familiaris; conditions: in vivo
[23] = Hepatic clearance in human; type: ADME

Structure (SMILES): COc1cc(-c2ncc(COc3cccc([C@@H](CC(=O)O)C4CC4)c3)nc2CC(C)C)c(F)cn1
- bioavailability [1]: 33.6%
- Activity (Rattus norvegicus [2]): 37373 ng/mL.hr
- EC50 [3]: 0.894 µM
- EC50 [4]: 0.017 µM
- Activity [5]: inactive
- CLH [6]: 26.8 mL/min/kg
- Activity [7]: inactive
- Activity [8]: 167%
- Vd [9]: 1.06 L/kg
- Activity (Rattus norvegicus [10]): Dose-dependent effect
- Activity [11]: Active
- half-life [12]: 4.82 h
- half-life at 1 µM [13]: 1.72 h
- Vd [14]: 0.384 L/kg
- IC50 (Cytochrome P450 2D6): > 10 µM
- fraction unbound [15]: 0.0045
- EC50 [16]: 0.862 µM
- IC50 (Cytochrome P450 2C8): 9.8 µM
- bioavailability [17]: 123%
- Cmax [18]: 8570 ng/mL
- Papp B→A [19]: 40 ×10⁻⁶ cm/s
- Activity [20]: inactive
- Papp A→B [21]: 50 ×10⁻⁶ cm/s
- CLH [22]: 13.5 mL/min/kg
- CLH [23]: 8.9 mL/min/kg
